Source: US10316021B2, “Heteroarylphenoxy benzamide kappa opioid ligands” (Pfizer Inc., priority 2016, dated 2019)

Legend:
kappa opioid receptor [1] = molecular target: T1, kappa opioid receptor (Mus musculus, UniProt P33534); assay: In vivo receptor occupancy (displacement of [3H]GR103545 in brain); details: subcutaneous dosing; for IC50: displacement of [3H]GR103545, unbound brain concentration, read-out: Mouse KOR IVRO unbound brain IC50
T1 construct: from tissue; host or cells: brain of adult male C57BL/6J mice (in vivo)
T1 sequence (P33534 whole entry): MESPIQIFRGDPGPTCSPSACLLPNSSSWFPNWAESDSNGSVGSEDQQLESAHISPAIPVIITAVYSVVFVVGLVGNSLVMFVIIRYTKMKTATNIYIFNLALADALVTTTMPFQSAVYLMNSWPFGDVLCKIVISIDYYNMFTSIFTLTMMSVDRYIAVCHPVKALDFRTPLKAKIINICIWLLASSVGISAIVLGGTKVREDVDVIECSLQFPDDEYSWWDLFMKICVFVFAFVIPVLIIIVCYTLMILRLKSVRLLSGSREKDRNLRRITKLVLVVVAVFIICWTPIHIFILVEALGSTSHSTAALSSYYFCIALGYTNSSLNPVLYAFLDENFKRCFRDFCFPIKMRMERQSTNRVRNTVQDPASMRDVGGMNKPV
From the text: (§1) Adult male C576BL/J6 mice from Jackson Labs (Bar Harbor, Me.) were group housed on individually-vented cage racks, in environmentally-controlled animal quarters (light/dark-6:00 am/6:[…]) for a minimum of 7 days prior to use. For progressive ratio studies, mice were food-restricted to 80-85% of their body weight before testing began. All animal procedures were approved by the Pfizer Inc. IACUC and conducted in accordance with the NIH Guide for the Care and Use of Laboratory Animals.
In Vivo Receptor Occupancy
In vivo receptor occupancy was assessed in adult male C57BL6/J mice. Mice were administered increasing doses (0.001-32 mg/kg s.c.) 30 min prior to administration of the kappa opioid receptor ligand, [^3H]GR103545 (100 μCi/kg, intraorbital). Animals were euthanized 10 min later using cervical dislocation and the brains dissected. One hemisphere was stored at −40° C. for subsequent measurement of compound concentration, the other was homogenized in chilled Tris-HCl buffer (50 mM, pH 7.4; 1:10 w/v) for twenty seconds. Samples of brain homogenate were filtered through 0.3 to 0.5% PEI-soaked GF/B filters, and the filters washed twice with chilled buffer before radioactivity was counted overnight using a scintillation counter. Binding of the ligand in cerebellum was used to determine non-specific binding.

kappa opioid receptor [2] = molecular target: T1, kappa opioid receptor; assay: Progressive ratio responding (reversal of spiradoline-induced deficit in motivation); format: in vivo; details: co-administered with spiradoline, receptor occupancy measured in a separate group of animals
From the text: as §1
Progressive Ratio Responding:
Motivation and food-reinforced operant behavior were assessed in the progressive ratio assay. Adult male C576BL/J6 mice were food-restricted to 80-85% of their body weight over a period of one week and kept in their home cages. Mice were trained to nose-poke for a food reward. […] Mice were assessed in a 60 minute session, where the number of rewards obtained was used as a surrogate of the level of motivation. Once mice had reached a stable level of responding, mice were dosed with the kappa opioid receptor agonist, spiradoline (3.2 mg/kg s.c.), to induce a deficit in motivation. Mice were co-administered increasing doses of the kappa opioid receptor antagonists (0.0032-3.2 mg/kg s.c.) to assess their ability to antagonize the spiradoline-induced deficit.

Structure (SMILES) | displacement of KOR agonist radioligand binding in the brain, in words (kappa opioid receptor [1]) | IC50 (kappa opioid receptor [1]) [nM] | % KOR IVRO to achieve 50% PR reversal (kappa opioid receptor [2]) [%]
COc1nn(C)cc1[C@@H]1CCCN1Cc1ccc(Oc2ccc(C(N)=O)cc2)cc1 (single isomer, unassigned) [Example 12] | displaced KOR agonist radioligand ([^3H]GR103545) binding in the brain in an exposure-dependent manner | 2.5 | 30
COc1nn(C)cc1C1CCCN1Cc1ccc(Oc2ccc(C(N)=O)cc2F)cc1 (single isomer, unassigned; (-)) [Example 8, (−)-3-Fluoro-4-(4-{[2-(3-methoxy-1-methyl-1H-pyrazol-4-yl)pyrrolidin-1-yl]methyl}phenoxy)benzamide] | displaced KOR agonist radioligand ([^3H]GR103545) binding in the brain in an exposure-dependent manner | 0.69 | 25
Cc1cc(C)cc([C@@H]2CCCN2Cc2ccc(Oc3ccc(C(N)=O)cc3F)cc2)c1 [Comparator E, reference compound] | displaced KOR agonist radioligand ([^3H]GR103545) binding in the brain in an exposure-dependent manner | 0.015 | 70
Cc1nn(C)cc1[C@@H]1CCCN1Cc1ccc(Oc2ccc(C(N)=O)cc2)cc1 [Example 11, 4-(4-{[(2S)-2-(1,3-Dimethyl-1H-pyrazol-4-yl)pyrrolidin-1-yl]methyl}phenoxy)benzamide] | displaced KOR agonist radioligand ([^3H]GR103545) binding in the brain in an exposure-dependent manner | 2.5 | 30
